# In patent US9908912B2, “Triclosan derivatives and uses thereof” (priority 2012, dated 2018):
# Legend:
# [1] = test system: Crono. sakazakii ATCC 29544; test: MIC in Nutrient Broth No. 2; format: cell-based, Cronobacter sakazakii; conditions: Nutrient Broth No. 2
# Procedure: (§1) Bacteria species as indicated in Table 1 were incubated for approximately 24 hours at 37° C.
# (§2) The tests were repeated with the addition of inducers. Methyl glycoside was the main inducer used, but other suitable inducers include isopropyl-β-D-thiogalactopyranoside, p-nitrophenyl-α-L-arabinopyranoside and p-nitrophenyl-β-D-xylopyranoside. Concentration of inducer in all cases was 100 μg/ml.
# [2] = test system: E. hermanii ATCC 33650; test: MIC in Nutrient Broth No. 2; format: cell-based, Escherichia hermanii; conditions: Nutrient Broth No. 2
# Procedure: as §1, §2
# [3] = test system: Kleb. aerogenes NCTC 88167; test: MIC in Nutrient Broth No. 2; format: cell-based, Klebsiella aerogenes; conditions: Nutrient Broth No. 2
# Procedure: as §1, §2
# [4] = test system: Kleb. pneumoniae ATCC 10031; test: MIC in Nutrient Broth No. 2; format: cell-based, Klebsiella pneumoniae; conditions: Nutrient Broth No. 2
# Procedure: as §1, §2
# [5] = test system: Staph. aureus; test: MIC in Nutrient Broth No. 2; format: cell-based, Staphylococcus aureus; conditions: 8 strains, Nutrient Broth No. 2
# Procedure: as §1, §2
# [6] = test system: Staph. epidermidis; test: MIC in Nutrient Broth No. 2; format: cell-based, Staphylococcus epidermidis; conditions: 3 strains, Nutrient Broth No. 2
# Procedure: as §1, §2
# [7] = test system: Staph. haemolyticus OCC 2223; test: MIC in Nutrient Broth No. 2; format: cell-based, Staphylococcus haemolyticus; conditions: Nutrient Broth No. 2
# Procedure: as §1, §2
# [8] = test system: Staph. saprophyticus ATCC 15305; test: MIC in Nutrient Broth No. 2; format: cell-based, Staphylococcus saprophyticus; conditions: Nutrient Broth No. 2
# Procedure: as §1, §2
# [9] = test system: Strep. agalactiae OCC 182; test: MIC in Nutrient Broth No. 2; format: cell-based, Streptococcus agalactiae; conditions: Nutrient Broth No. 2
# Procedure: as §1, §2
# [10] = test system: Strep. pneumoniae ATCC 6305; test: MIC in Nutrient Broth No. 2; format: cell-based, Streptococcus pneumoniae; conditions: Nutrient Broth No. 2
# Procedure: as §1, §2
# [11] = test system: Strep. pyogenes ATCC 19615; test: MIC in Nutrient Broth No. 2; format: cell-based, Streptococcus pyogenes; conditions: Nutrient Broth No. 2
# Procedure: as §1, §2
# [12] = test system: Strep. viridans OCC 234; test: MIC in Nutrient Broth No. 2; format: cell-based, Streptococcus viridans; conditions: Nutrient Broth No. 2
# Procedure: as §1, §2
# [13] = test system: Ent. faecalis; test: MIC in Nutrient Agar; format: cell-based, Enterococcus faecalis; conditions: Nutrient Agar containing 0.1 μg/ml of inducer; 37° C., 24 hours
# Procedure: (§3) The triclosan-glycosides were added to Nutrient Agar (Oxoid CM0003; Thermofisher Scientific) and organisms were transferred onto the plates surface using a multi-point inoculation device (Oxoid Cathra, Thermofisher Scientific). The latter is essentially a metal plate containing a number of needles. Each needle tip (usually 36 per plate) dips into an organism suspension (in phosphate buffered saline; PBS) and the needles are then moved over the agar plate and lowered onto its surface. In this way the growth of colonies of up to 36 different organisms can be observed on one plate.
# (§4) Nutrient Agar No. 2 was prepared according to the manufacturers instructions, autoclaved and cooled to 50° C. Test compounds were then added as filter sterilised solutions (50:50 deionised water:ethanol), to give final concentrations from 256 μg/ml to 0 μg/ml in doubling dilutions. […] The mixtures were swirled then four plates (25 ml molten agar) were poured for each concentration. Plates were dried in a laminar flow cabinet then inoculated with overnight cultures of organisms that had been decimally diluted twice in sterile saline solution (approximately 10^7 cfu/ml) using a multi-point inoculator. Plates were then incubated at 37° C. for 24 hours. MICs were determined as the concentration at which no growth was observed.
# [14] = test system: Ent. faecium; test: MIC in Nutrient Agar; format: cell-based, Enterococcus faecium; conditions: Nutrient Agar containing 0.1 μg/ml of inducer; 37° C., 24 hours
# Procedure: as §3, §4
# [15] = test system: S. aureus; test: MIC in Nutrient Agar; format: cell-based, Staphylococcus aureus; conditions: 8 strains; Nutrient Agar containing 0.1 μg/ml of inducer; 37° C., 24 hours
# Procedure: as §3, §4
# [16] = test system: S. epidermidis; test: MIC in Nutrient Agar; format: cell-based, Staphylococcus epidermidis; conditions: 3 strains; Nutrient Agar containing 0.1 μg/ml of inducer; 37° C., 24 hours
# Procedure: as §3, §4
# [17] = test system: S. saprophyticus; test: MIC in Nutrient Agar; format: cell-based, Staphylococcus saprophyticus; conditions: Nutrient Agar containing 0.1 μg/ml of inducer; 37° C., 24 hours
# Procedure: as §3, §4
# [18] = test system: Str. agalactiae; test: MIC in Nutrient Agar; format: cell-based, Streptococcus agalactiae; conditions: Nutrient Agar containing 0.1 μg/ml of inducer; 37° C., 24 hours
# Procedure: as §3, §4
# [19] = test system: Str. pneumoniae; test: MIC in Nutrient Agar; format: cell-based, Streptococcus pneumoniae; conditions: Nutrient Agar containing 0.1 μg/ml of inducer; 37° C., 24 hours
# Procedure: as §3, §4
# [20] = test system: Str. pyogenes; test: MIC in Nutrient Agar; format: cell-based, Streptococcus pyogenes; conditions: Nutrient Agar containing 0.1 μg/ml of inducer; 37° C., 24 hours
# Procedure: as §3, §4
# [21] = test system: Str. viridans; test: MIC in Nutrient Agar; format: cell-based, Streptococcus viridans; conditions: Nutrient Agar containing 0.1 μg/ml of inducer; 37° C., 24 hours
# Procedure: as §3, §4
# [22] = test system: Cr. sakazakii; test: MIC in Nutrient Agar; format: cell-based, Cronobacter sakazakii; conditions: Nutrient Agar containing 0.1 μg/ml of inducer; 37° C., 24 hours
# Procedure: as §3, §4
# [23] = test system: Ent. aerogenes; test: MIC in Nutrient Agar; format: cell-based, Enterobacter aerogenes; conditions: Nutrient Agar containing 0.1 μg/ml of inducer; 37° C., 24 hours
# Procedure: as §3, §4
# [24] = test system: Ent. cloacae; test: MIC in Nutrient Agar; format: cell-based, Enterobacter cloacae; conditions: Nutrient Agar containing 0.1 μg/ml of inducer; 37° C., 24 hours
# Procedure: as §3, §4
# [25] = test system: E. coli; test: MIC in Nutrient Agar; format: cell-based, Escherichia coli; conditions: 8 strains; Nutrient Agar containing 0.1 μg/ml of inducer; 37° C., 24 hours
# Procedure: as §3, §4
# [26] = test system: E. hermanii; test: MIC in Nutrient Agar; format: cell-based, Escherichia hermanii; conditions: Nutrient Agar containing 0.1 μg/ml of inducer; 37° C., 24 hours
# Procedure: as §3, §4
# [27] = test system: Bacillus cereus; test: MIC in Nutrient Agar; format: cell-based; conditions: Nutrient Agar containing 0.1 μg/ml of inducer; 37° C., 24 hours
# Procedure: as §3, §4
# [28] = test system: Bacillus subtilis; test: MIC in Nutrient Agar; format: cell-based; conditions: Nutrient Agar containing 0.1 μg/ml of inducer; 37° C., 24 hours
# Procedure: as §3, §4
# [29] = test system: Hafnia alvei; test: MIC in Nutrient Agar; format: cell-based; conditions: Nutrient Agar containing 0.1 μg/ml of inducer; 37° C., 24 hours
# Procedure: as §3, §4
# [30] = test system: Ps. aeruginosa; test: MIC in Nutrient Agar; format: cell-based; conditions: Nutrient Agar containing 0.1 μg/ml of inducer; 37° C., 24 hours
# Procedure: as §3, §4
# [31] = test system: Salmonella; test: MIC in Nutrient Agar; format: cell-based; conditions: 11 strains; Nutrient Agar containing 0.1 μg/ml of inducer; 37° C., 24 hours
# Procedure: as §3, §4
# [32] = test system: Kleb. aerogenes; test: MIC in Nutrient Agar; format: cell-based, Klebsiella aerogenes; conditions: Nutrient Agar containing 0.1 μg/ml of inducer; 37° C., 24 hours
# Procedure: as §3, §4
# [33] = test system: Ser. marcescens; test: MIC in Nutrient Agar; format: cell-based, Serratia marcescens; conditions: Nutrient Agar containing 0.1 μg/ml of inducer; 37° C., 24 hours
# Procedure: as §3, §4
smiles,measurement,setting,value
"OC[C@H]1O[C@@H](Oc2cc(Cl)ccc2Oc2ccc(Cl)cc2Cl)[C@H](O)[C@@H](O)[C@@H]1O [β-D-Glucoside, triclosan-β-D-glucopyranoside]",MIC,[1]; with inducer 100 μg/ml,8 mg/L
same,MIC,[1]; without inducer,64 mg/L
same,MIC,[2]; with inducer 100 μg/ml,2 mg/L
same,MIC,[2]; without inducer,16 mg/L
same,MIC,[3]; with inducer 100 μg/ml,4 mg/L
same,MIC,[3]; without inducer,32 mg/L
same,MIC,[4]; with inducer 100 μg/ml,0.5 mg/L
same,MIC,[4]; without inducer,0.5 mg/L
same,MIC,[5]; with inducer 100 μg/ml,0.5 to 2 mg/L
same,MIC,[5]; without inducer,4 to 8 mg/L
same,MIC,[6]; with inducer 100 μg/ml,0.5 to 1 mg/L
same,MIC,[6]; without inducer,8 to 16 mg/L
same,MIC,[7]; with inducer 100 μg/ml,0.5 mg/L
same,MIC,[7]; without inducer,16 mg/L
same,MIC,[8]; with inducer 100 μg/ml,8 mg/L
same,MIC,[8]; without inducer,64 mg/L
same,MIC,[9]; with inducer 100 μg/ml,128 mg/L
same,MIC,[9]; without inducer,256 mg/L
same,MIC,[10]; with inducer 100 μg/ml,64 mg/L
same,MIC,[10]; without inducer,128 mg/L
same,MIC,[11]; with inducer 100 μg/ml,16 mg/L
same,MIC,[11]; without inducer,32 mg/L
same,MIC,[12]; with inducer 100 μg/ml,128 mg/L
same,MIC,[12]; without inducer,256 mg/L
same,MIC,[13],>256 mg/L
same,MIC,[14],>256 mg/L
same,MIC,[15],4 to 8 mg/L
same,MIC,[16],8 to 16 mg/L
same,MIC,[17],32 mg/L
same,MIC,[18],>256 mg/L
same,MIC,[19],128 mg/L
same,MIC,[20],64 mg/L
same,MIC,[21],256 mg/L
same,MIC,[22],32 mg/L
same,MIC,[23],32 mg/L
same,MIC,[24],16 mg/L
same,MIC,[25],16 to 32 mg/L
same,MIC,[26],16 mg/L
same,MIC,[27],256 mg/L
same,MIC,[28],256 mg/L
same,MIC,[29],8 mg/L
same,MIC,[30],>256 mg/L
same,MIC,[31],16 to 128 mg/L
same,MIC,[32],32 mg/L
same,MIC,[33],>256 mg/L
